Among the data in patent US20060089371A1, “Phenyl or heteroaryl amino alkane derivatives as ip receptor antagonist” (Bayer HealthCare AG, priority 2002, published 2006) are melting point and IC50 values, retold here.

Where a name gives a salt, the structure may show the parent alone.

System in one series: not given
Test: not given
Settings: not given
Take `O=C(O)[C@@H](Cc1ccccc1)Nc1cc(-c2ccc(OCC3CC3)cc2)ncn1` [Example 1-2, N-{6-[4-(Cyclopropylmethoxy)phenyl]pyrimidin-4-yl}-D-phenylalanine]: the melting point was 180 to 183 °C (dec.).

In turn, `O=C(O)[C@H](Cc1ccccc1)Nc1cc(-c2ccc(Cc3ccccc3)cc2)ncn1` [Example 18-1, N-[6-(4-Benzylphenyl)pyrimidin-4-yl]phenylalanine] had a melting point of 116 to 118 °C.

The target in a further series is T1, IP receptor (Homo sapiens, UniProt P43119).
T1 construct: one million cells in 160 μl aliquot of cell suspension were put in a well of 96 well plate; host or cells: HEL 92.1.7 human erythroleukemia cells (whole cells)
T1 sequence (P43119 whole entry): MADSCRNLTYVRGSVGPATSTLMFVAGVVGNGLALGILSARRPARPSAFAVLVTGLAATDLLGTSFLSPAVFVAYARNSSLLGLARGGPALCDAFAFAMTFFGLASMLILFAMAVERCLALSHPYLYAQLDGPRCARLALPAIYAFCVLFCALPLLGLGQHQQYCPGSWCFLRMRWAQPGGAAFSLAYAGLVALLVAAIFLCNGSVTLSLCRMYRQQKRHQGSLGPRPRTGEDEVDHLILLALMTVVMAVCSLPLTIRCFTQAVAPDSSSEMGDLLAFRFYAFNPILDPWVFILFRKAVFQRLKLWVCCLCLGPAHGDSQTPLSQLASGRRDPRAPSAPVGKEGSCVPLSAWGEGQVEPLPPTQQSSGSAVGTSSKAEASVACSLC
The series can be described thus: IP receptor binding/cAMP in HEL cells ([3H]-iloprost binding, Assay 1; iloprost-induced cAMP production, Assay 2). As to conditions: compounds of about 40 to 90% purity, read-out: In vitro activity grade (IC50 class). As for the experimental part:
[Measurement of the [^3H]-iloprost Binding to HEL Cells] (Assay 1)
A human erythloleukemia cell line, HEL 92.1.7, was purchased from American Type Culture Correction and maintained in RPMI-1640 medium (Gibco BRL) supplemented with 10% fetal calf serum (FCS), 2 mM glutamine, 4.5 g/L glucose, 10 mM Hepes, 1 mM sodium pyruvate, 100 U/ml penicillin, and 100 μg/ml streptomycin in a humidified 5% CO2 atmosphere at 37° C. Cells were collected with centrifugation and washed with binding assay buffer (BAB: 50 mM Tris-HCl, 5 mM MgCl2 (pH 7.5)). Cells were suspended at the density of 6.25×10^6 cells/ml in BAB, and one million cells in 160 μl aliquot of cell suspension were put in a well of 96 well plate (Falcon). Then, 20 μl of compound solution, 100 μM of iloprost (for non-specific binding), or buffer alone (total binding), diluted with 1% DMSO in BAB was added. Finally, another 20 μl containing [^3H]-iloprost (0.02 μCi, 0.5-1 pmol) in BAB was added and incubated at room temperature for 30 min with a gentle shaking. Cell suspension was then transferred to a well of MultiScreen plate with GF/C glass filters (Millipore) to harvest cells. Cells were washed twice with 200 μl of ice-cold BAB and the plate was kept at 55° C. for 30 min to dry filters. The filter in the well was punched out to a counting tube and 2 ml of Ultima Gold XR (Packard) was added. [^3H]-radio activity in the filter was measured by a liquid scintillation counter (Beckman, USA).
[Iloprost-Induced cAMP Production Assay in HEL Cells] (Assay 2)
HEL cells were collected with centrifugation and washed with cAMP assay buffer (CAB: Hank's balanced salt solution, 17 mM Hepes, 0.1% bovine serum albumin, 1 mM IBMX, 0.4% DMSO, and 1 mM L-ascorbic acid sodium salt (pH 7.4)). Cells were suspended at the density of 2.5×10^5 cells/ml in CAB, and twenty thousand cells in 80 μl aliquot of cell suspension were put in a well of 96 well plate (Falcon). Then, 10 μl of compound solution diluted with 1% DMSO in CAB or buffer alone was added. The plate was incubated at 37° C. for 30 min. Then, another 10 μl containing 100 nM iloprost in CAB or buffer alone was added and further incubated at 37° C. for 30 min. cAMP content in the well was measured by a cAMP ELISA kit (Applied Biosystems, USA).
The data corresponds to the compounds as yielded by solid phase synthesis and thus to levels of purity of about 40 to 90%. For practical reasons, the compounds are grouped in three classes of activity as follows: IC50=A<0.1 μM≦B<1 μM≦C
In the case of `O=C(O)[C@@H](Cc1ccccc1)Nc1cc(-c2ccc(OCc3ccccc3)cc2)ncn1` [Example 1-1, N-{6-[4-(Benzyloxy)phenyl]pyrimidin-4-yl}-D-phenylalanine], the IC50 is less than 100 nM.

With `O=C(O)[C@@H](Cc1ccccc1)Nc1cc(-c2ccc(OCC3CC3)cc2)ncn1` [Example 1-2, N-{6-[4-(Cyclopropylmethoxy)phenyl]pyrimidin-4-yl}-D-phenylalanine], the IC50 was less than 100 nM.

On to `CCCC[C@@H](Nc1cc(-c2ccc(OCc3ccccc3)cc2)ncn1)C(=O)O` [Example 1-3, N-{6-[4-(benzyloxy)phenyl]pyrimidin-4-yl}-D-norleucine hydrochloride], for which the IC50 was less than 100 nM.

Regarding `O=C(O)C(Cc1ccccc1)Nc1cc(-c2ccc(OCc3ccccc3)cc2)nc(Cl)n1` (stereo not shown) [Example 1-21], the IC50 is less than 100 nM.

Turning to `O=C(O)C(Cc1c[nH]c2ccccc12)Nc1cc(-c2ccc(OCc3ccccc3)cc2)ncn1` (stereo not shown) [Example 1-37], the IC50 was less than 100 nM.

`Nc1nc(NC(Cc2ccccc2)C(=O)O)cc(-c2ccc(OCc3ccccc3)cc2)n1` (stereo not shown) [Example 1-38]: the IC50 was less than 100 nM.

Take `O=C(O)C(Cc1ccccc1)Nc1cc(-c2ccccc2)ncn1` (stereo not shown) [Example 1-51]: the IC50 was in the range of 100 to 1000 nM.

For the molecule `O=C(O)C(Cc1ccccc1)Nc1cc(-c2ccc(F)cc2)ncn1` (stereo not shown) [Example 1-52], the IC50 lay in the range of 100 to 1000 nM.

As to `O=C(O)C(Cc1ccccn1)Nc1cc(-c2ccc(-c3ccccc3)cc2)ncn1` (stereo not shown) [Example 1-53], the IC50 is less than 100 nM.

In the case of `CSc1nc(NC(Cc2ccccc2)C(=O)O)cc(-c2ccc(OCc3ccccc3)cc2)n1` (stereo not shown) [Example 1-54], the IC50 was in the range of 100 to 1000 nM.

Take `O=C(O)C(Cc1ccccc1)Nc1cc(-c2ccc(Cl)cc2)ncn1` (stereo not shown) [Example 1-55]: the IC50 was 100 to 1000 nM.

As for `CCOc1ccc(-c2cc(NC(Cc3ccccc3)C(=O)O)ncn2)cc1` (stereo not shown) [Example 2-18], the IC50 is less than 100 nM.

Take `CCCOc1ccc(-c2cc(NC(Cc3ccccc3)C(=O)O)ncn2)cc1` (stereo not shown) [Example 2-19]: the half-inhibitory concentration (IC50) was less than 100 nM.

Regarding `COc1cccc(COc2ccc(-c3cc(NC(Cc4ccccn4)C(=O)O)ncn3)cc2)c1` (stereo not shown) [Example 2-36], the IC50 is less than 100 nM.

For `COc1cc(COc2ccc(-c3cc(NC(Cc4ccccn4)C(=O)O)ncn3)cc2)cc(OC)c1` (stereo not shown) [Example 2-37], the IC50 was less than 100 nM.

With `O=C(O)C(Cc1ccccc1)Nc1cc(-c2ccc(OCC3CC3)c(F)c2)ncn1` (stereo not shown) [Example 2-41], the IC50 is less than 100 nM.

Consider `CCCCC(Nc1cc(-c2ccc(OCC3CC3)c(F)c2)ncn1)C(=O)O` (stereo not shown) [Example 2-42], for which the IC50 lay within 100 to 1000 nM.

For the molecule `O=C(O)C(Cc1ccccn1)Nc1cc(-c2ccc(OCC3CC3)c(F)c2)ncn1` (stereo not shown) [Example 2-43], the IC50 was in the range of 100 to 1000 nM.

Consider `O=C(O)[C@H](Cc1ccccc1)Nc1ccnc(-c2ccc(OCc3ccccc3)cc2)n1` [Example 3-1, N-{2-[4-(Benzyloxy)phenyl]-4-pyrimidinyl}phenylalanine], for which the concentration for half-maximal inhibition (IC50) was 100 to 1000 nM.

As for `O=C(O)C(Cc1cccc(OCCN2CCOCC2)c1)Nc1cc(-c2ccc(OCc3ccccc3)cc2)ncn1` (stereo not shown) [Example 4-2], the half-inhibitory concentration (IC50) was less than 100 nM.

In the case of `O=C(O)[C@H](Cc1ccc(NC2=NCCN2)cc1)Nc1cc(-c2ccc(OCc3ccccc3)cc2)ncn1` [Example 6-1, N-{6-[4-(Benzyloxy)phenyl]pyrimidin-4-yl}-4-(4,5-dihydro-1H-imidazol-2-yl-amino)phenylalanine], the IC50 was less than 100 nM.

Consider `O=C(O)C(Cc1ccccc1)Nc1cc(-c2ccc(CCc3ccccc3)cc2)ncn1` (stereo not shown) [Example 8-1, N-{6-[4-(2-Phenylethyl)phenyl]pyrimidinyl}phenylalanine], for which the IC50 is less than 100 nM.

On to `COc1ccc(-c2ccc(-c3cc(N[C@@H](Cc4ccccc4)C(=O)O)ncn3)cc2)cc1` [Example 11-1, N-[6-(4′-Methoxybiphenyl-4-yl)pyrimidin-4-yl]phenylalanine], for which the IC50 is less than 100 nM.

For `O=C(O)C(Cc1ccccc1)Nc1cc(-c2ccc(-c3ccc(-c4ccccc4)cc3)cc2)ncn1` (stereo not shown) [Example 11-8], the IC50 was more than 1000 nM.

With `N#Cc1ccnc(Oc2ccc(-c3cc(N[C@@H](Cc4ccccc4)C(=O)O)ncn3)cc2)c1` [Example 12-1, N-(6-{4-[(4-cyanopyridin-2-yl)oxy]phenyl}pyrimidin-4-yl)phenylalanine], the IC50 was less than 100 nM.

Turning to `O=C(O)C(Cc1ccccc1)Nc1cc(-c2ccc(Oc3ncc(C(F)(F)F)cc3Cl)cc2)ncn1` (stereo not shown) [Example 12-2], the half-maximal inhibitory concentration (IC50) was more than 1000 nM.

For the molecule `O=C(O)C(Cc1ccccc1)Nc1cc(-c2ccc(Oc3cc(C(F)(F)F)ncn3)cc2)ncn1` (stereo not shown) [Example 12-3], the IC50 fell in the range of 100 to 1000 nM.

Turning to `Cc1ccc(C#N)c(Oc2ccc(-c3cc(NC(Cc4ccccc4)C(=O)O)ncn3)cc2)n1` (stereo not shown) [Example 12-4], the IC50 was more than 1000 nM.

For `O=C(O)C(Cc1ccccc1)Nc1cc(-c2ccc(Oc3ccc(C(F)(F)F)cn3)cc2)ncn1` (stereo not shown) [Example 12-5], the half-inhibitory concentration (IC50) was 100 to 1000 nM.

As to `O=C(O)C(Cc1ccccc1)Nc1cc(-c2ccc(Oc3ccc4ccccc4n3)cc2)ncn1` (stereo not shown) [Example 12-6], the IC50 was in the range of 100 to 1000 nM.

In the case of `O=C(O)C(Cc1ccccc1)Nc1cc(-c2ccc(NCc3ccccc3)cc2)ncn1` (stereo not shown) [Example 13-1, N-{6-[4-Benzylamino)phenyl]pyrimidin-4-yl}phenylalanine hydrochloride], the IC50 is less than 100 nM.

As for `O=C(O)[C@H](Cc1ccccc1)Nc1cc(-c2ccc(NS(=O)(=O)c3ccccc3)cc2)ncn1` [Example 15-1, N-(6-{4-[(Phenylsulfonyl)amino]phenyl}pyrimidin-4-yl)phenylalanine], the IC50 was more than 1000 nM.

On to `O=C(O)[C@H](Cc1ccccc1)Nc1cc(-c2ccc(NCC3CC3)cc2)ncn1` [Example 16-1, N-(6-{4-[(Cyclopropylmethyl)amino]phenyl}pyrimidin-4-yl)phenylalanine], for which the IC50 lay in the range of 100 to 1000 nM.

Regarding `O=C(O)C(Cc1ccccc1)Nc1cc(-c2ccc(CNc3ccccc3)cc2)ncn1` (stereo not shown) [Example 19-1, N-{6-[4-(Anilinomethyl)phenyl]pyrimidinyl}phenylalanine], the IC50 was less than 100 nM.

In the case of `O=C(O)C(Cc1ccccc1)Nc1cc(-c2ccc(CN3Cc4ccccc4C3)cc2)ncn1` (stereo not shown) [Example 19-3], the IC50 is 100 to 1000 nM.

In the case of `O=C(O)[C@H](Cc1ccccc1)Nc1cc(-c2ccc(COc3ccccc3)cc2)ncn1` [Example 20-1, N-{6-[4-(Phenoxymethyl)phenyl]pyrimidin-4-yl}phenylalanine], the IC50 was less than 100 nM.

With `c1ccc(COc2ccc(-c3cc(NC(Cc4ccccn4)c4nnn[nH]4)ncn3)cc2)cc1` (stereo not shown) [Example 27-2], the IC50 is 100 to 1000 nM.

In the case of `O=C(O)C(Cc1ccccc1)Nc1cc(-c2ccc(OCc3ccccc3)cc2)on1` (stereo not shown) [Example 28-2], the IC50 is less than 100 nM.

As to `Cn1nc(-c2ccc(OCc3ccccc3)cc2)cc1NC(Cc1ccccc1)C(=O)O` (stereo not shown) [Example 28-3], the half-maximal inhibitory concentration (IC50) is more than 1000 nM.

As to `O=C(O)C(Cc1ccccc1)Nc1nc(-c2ccc(OCc3ccccc3)cc2)cs1` (stereo not shown) [Example 28-4], the IC50 is more than 1000 nM.

Regarding `O=C(O)[C@H](Cc1ccccc1)Nc1nccc(-c2ccc(OCc3ccccc3)cc2)n1` [Example 29-1, N-{4-[4-(Benzyloxy)phenyl]pyrimidin-2-yl}phenylalanine], the IC50 is less than 100 nM.
